Data on 8 compounds can be found in BindingDB's records for doi:10.7270/Q2HX1B3F (The Scripps Research Institute Molecular Screening Center, 2007).

The term IC50 denotes the point on the concentration scale where inhibition reaches its midpoint.

The assay concerns the target Collagenase 3 (Homo sapiens, UniProt P45452). Description: MMP13 inhibitors among autofluorescent compounds, dose response, biochemical, fluorescence (AID 769).
Compound `O=S(=O)(Nc1ccc(-c2nc3cccnc3s2)cc1)c1cccs1` had an IC50 above 39.8 µM.

The compound `CCOC(=O)CSc1nc(-c2ccc3c(c2)OCO3)ccc1C#N` [2-[[6-(1,3-benzodioxol-5-yl)-3-cyano-2-pyridinyl]thio]acetic acid ethyl ester] registered a 50% inhibitory concentration (IC50) above 39.8 µM.

As to `COc1cc(OC)cc(-c2nnc(Nc3nc4c(F)cccc4s3)o2)c1` [5-(3,5-dimethoxyphenyl)-N-(4-fluorobenzo[d]thiazol-2-yl)-1,3,4-oxadiazol-2-amine], half-maximal inhibition (IC50) was put at 3.52 µM.

For `Cc1nn(-c2ccccc2)c2sc(-c3nnc(S)o3)cc12` [MLS000043319], the 50% inhibitory concentration (IC50) is 0.883 µM.

Turning to `Fc1cccc2sc(Nc3nnc(-c4ccccc4)o3)nc12` [(4-fluoro-1,3-benzothiazol-2-yl)-(5-phenyl-1,3,4-oxadiazol-2-yl)amine], the half-inhibitory concentration (IC50) is above 39.8 µM.

With `COc1cccc(-c2nnc(Nc3nc4c(F)cccc4s3)o2)c1` [(4-fluoro-1,3-benzothiazol-2-yl)-[5-(3-methoxyphenyl)-1,3,4-oxadiazol-2-yl]amine], the concentration for half-maximal inhibition (IC50) was above 39.8 µM.

Take `Oc1ccc(/N=C/c2ccc(-c3cccs3)s2)cc1` [4-[(5-thiophen-2-yl-2-thiophenyl)methylideneamino]phenol]: 1.68 µM corresponded to half-maximal inhibition (IC50).

For the compound `COc1ccc(-c2ccc(-c3noc(-c4ccccc4C)n3)c(OC)n2)cc1` [3-(2-methoxy-6-(4-methoxyphenyl)pyridin-3-yl)-5-o-tolyl-1,2,4-oxadiazole], the IC50 was 3.97 µM.
